Data on two molecules can be found in patent publication US12070458B2, “Therapeutic agent composition and method of use, for treatment of mild congnitive impairment, depression, and psychological disorders” (priority 2018, dated 2024).

Residues, ends and D or L forms follow the SMILES beside them.

Experiment [1] has as its system cerebellar microexplants (P4). Nature of the experiment: Glutamate induced neuronal death in cerebellar microexplants (P4). The class given is cell-based, Wistar rats. To be noted: for neuron number compared to the normal control group: a further lower dose; for recovery from glutamate-induced neurotoxicity: lower doses 10-100 nM, simultaneously with glutamate. The method, then: Cerebellar Cell Culture Preparing and Coating of Cover Slips
Ten coverslips were placed into a large petri dish and washed in 70% alcohol for 5 minutes, then washed with Millipore H2O. The coverslips were air dried, then coated with Poly-D-Lysine (1 mg/ml stock solution in PBS, 90-100 μl) and incubated for 2 hours at 34° C.
Postnatal day 4 Wistar rats were used for the study. Rats were placed in ice for 1 minute, the heads were decapitated and the cerebellum removed on ice. Cerebellum tissue was placed in 1 ml of 0.65% glucose supplemented PBS (10 μl 65% stock D (+)glucose/1 ml PBS) in a large petri dish, chopped up into smaller sections and triturate with a 1 ml insulin syringe via a 23 G (0.4 mm) needle, and then squirted back into the glucose solution on the large petri dish. The tissue was sieved through (125 μm pore size gaze) and centrifuged (2 minutes at 60 g) two times for a medium exchange into serum-free BSA-supplemented START V medium (Biochrom). The second centrifugation step was done with 1 ml of START V medium. The microexplants were reconstituted into 500 μl of START V medium and put on ice.
Cultivation and Fixation of Cerebellar Cells
Two hours after PDL-coating, the slides were washed with Millipore H2O and air dried. Each slide was placed into a small 35 mm petri dish and 40 μl of START V/cell suspension added. The tissue was incubated for 2 hours at 34° C. (settlement period). START V-medium (1 ml) was then added to the petri dish and cultivated at 34° C./5% CO2/100% humidity for 48 hours. Cells were rinsed in PBS and then fixed for 2-3 minutes in increasing concentrations of paraformaldehyde (500 μl of 0.4% PFA was applied; then 1.2% PFA; then 3% PFA and finally 4% PFA—all fixation solutions contain 0.2% glutardialdehyde). Finally, the microexplants were rinsed in PBS.
10 μl of toxin (L-glutamate-100 mM in Millipore water) was applied simultaneously with cPG (from bachem, 10 mM stock prepared in PBS and diluted to final concentrations between 1-100 nM) for Study 1. A delay in administration of cPG at 6 hours after glutamate treatment was performed for Study 2.
10 μl of toxin (L-glutamate-100 mM in Millipore water) was applied simultaneously with cyclic(tri(prolylglycyl)) (which was obtained from NeuroBiomed, San Jose, California), 10 mM stock prepared in PBS and diluted to final concentrations between 1-100 nM) for Study 1. A delay in administration of cyclic(tri(prolylglycyl)) at 6 hours after glutamate treatment was performed for Study 2.
10 μl of toxin (L-glutamate-100 mM in Millipore water) was applied simultaneously with cyclic Glycyl-2-Methyl Proline (obtained NeuroBiomed, San Jose California), 10 mM stock prepared in PBS and diluted to final concentrations between 1-100 nM) for Study 1. A delay in administration of cPG at 6 hours after glutamate treatment was performed for Study 2.

In experiment [2] the test system is BrdU positive cells in sub ventricular zone and dentate gyrus. Nature of the experiment: Neurogenesis by BrdU co-administration (sub ventricular zone, dentate gyrus). To be noted: 10 mg/kg i.p. in 0.1% RSA twice daily for 7 days, compared to sham injected. Type of experiment: in vivo, Wistar rats. The method, then:
Male Wistar rats weighing about 250-270 g (not newborn) were used. All animal experiments were conducted in agreement with national and international guidelines. Care was taken to minimize suffering for the animals. Animals were allowed to acclimatize for 1 week before start of the studies. Animals were housed under standardized conditions with normal tight-dark periods and in groups of five animals per cage. Animals had access to food and water ad libitum during the studies.
Three neurogenesis modulating agents, cPG, c(PG)3 and cGMeP were separately administered intraperitoneally to Male Wistar rats (N=10) at 10 mg/kg in Rat Serum Albumin (RSA). The negative control (n=12), the vehicle group was injected with saline (in 0.1% RSA). Bromodeoxyuridine (Brd1J; 50 mg/kg) was co-administrated together with the compounds. The intraperitoneally injections were given with a 12 hour interval for 7 days. Animals were perfused on day 8. The rats were kept at 12 hours light/dark regime. In perfusion, animals were perfused transcranially with 50 ml of ice cold phosphate buffered saline (PBS) and then 100 ml of 4% paraformaldehyde in PBS. Brains were fixed after removal in 4% paraformaldehyde in PBS for 24 hours at 4° C. at least 3 days before sectioning. The procedures of transcranial infusion consist the following steps: […]

The mark [3] stands for this setting: 1-100 nM given 6 hours after the glutamate treatment, compared to vehicle.
[4] abbreviates: administered simultaneously with glutamate, 1-100 nM, glutamate alone 85% loss of neurons.

As for `O=C1NCC(=O)N2CCC[C@H]2C(=O)NCC(=O)N2CCC[C@H]2C(=O)NCC(=O)N2CCCC12` (stereo partly drawn) [c(PG)3, cyclic (glycyl-L-prolylglycyl-L-prolylglycyl-L-prolyl)] (HELM PEPTIDE1{G.P.G.P.G.[O=C(C1CCCN1[*:1])[*:2]]}$PEPTIDE1,PEPTIDE1,1:R1-6:R2$$$V2.0), the “improvement, recovery from glutamate induced neurotoxicity” value in experiment [1] (setting [3]) is given as “approximately 43%”. Moreover, in experiment [1], the “neuron number compared to the normal control group” value was “significant increase” and the “recovery from glutamate-induced neurotoxicity” value is “significant recovery”. Moreover, in experiment [1] (setting [4]), the “reduction of glutamate induced neuronal death” value is 57%. The “number of newborn cells (BrdU positive) in sub ventricular zone and dentate gyrus” value in experiment [2] was “significant increase”.
Regarding `O=C1NCC(=O)N2CCC[C@@H]12` [cPG, cyclic Prolyl Glycine], in experiment [1] (setting [3]), the “recovery from glutamate induced neurotoxicity” value was “significantly recovery”. In addition, in experiment [1], the “neuron number compared to the normal control group” value was “significant increase” and the “recovery from glutamate-induced neurotoxicity” value is “significant recovery”. Further, the “glutamate induced neuronal death” value in experiment [1] (setting [4]) is given as “significantly reduced”. In experiment [2], the “number of newborn cells (BrdU positive) in sub ventricular zone and dentate gyrus” value is recorded as “significant increase”.
